The results in this text go back to US20110263631A1, “COMBINATION OF A SEROTONIN AND NOREPINEPHRINE REUPTAKE INHIBITOR AND AN OPIOID AGONIST FOR THE TREATMENT OF PAIN” (priority 2010, published 2011).

Series [1] in a line: Pharmacokinetic studies: plasma concentrations alone or in combination. Conditions: rat; for Plasma concentrations of SNRI alone versus in combination with morphine: compound 1 3 mg/kg, duloxetine 10 mg/kg or atomoxetine 10 mg/kg IP, morphine 3 mg/kg SC or vehicle SC.
For series [2], the system named is rat formalin pain model. Put plainly: Rat formalin model of pain (inhibition of formalin-induced flinching). Format: in vivo. Conditions: for SNRI Dose Response ED50 (Confidence Interval): phase 2A, SNRI IP alone or plus 1 mg/kg morphine SC, 95% CI.
Series [3] addresses T1, rat SERT (Rattus norvegicus, UniProt P31652).
T1 construct: from tissue; host or cells: rat cortex or lumbar spinal cord homogenate from dosed animals
Put plainly: Ex vivo SERT transporter occupancy ([3H]-citalopram association). It is filed as in vivo. The note with it: 1.25 h post dose, ± Standard Error; for receptor occupancy at 3 mg/kg: 3 mg/kg IP; for receptor occupancy at 10 mg/kg: 10 mg/kg IP.
Experimental: (§1) To monitor SERT and NET transporter occupancy, an ex vivo occupancy assay was used in which the initial rate of association of a SERT- or NET-selective radioligand, respectively, to the tissue homogenates was monitored. The initial rate of association of radioligand is directly proportional to the level of free (unoccupied) transporter.
Rats were euthanized 1.25 hours post compound administration by decapitation. Following decapitation, the brain was removed and placed on to a clean metal block, on ice. A parasagittal cut was made through the entire brain, around 4 mm lateral to the midline. The lateral cortex pieces were discarded. A midsagittal cut was made through the entire length of the brain. The block of brain corresponding to each hemisphere was then placed on to the respective lateral cut surface, such that the midsagittal surface was uppermost. A single cut was made parallel to, and about 1 mm dorsal to, the corpus callosum to remove a cortex piece, which was frozen on dry ice prior to storage at −80° C. The spinal cord was harvested by hydraulic extrusion with PBS. An 18 gauge needle was inserted into the spinal column near the iliac crest and the buffer injected into the spinal column with the resultant extrusion of the spinal cord, intact. The lumbar spinal cord (approximately 1-1.5 cm in length) was rapidly dissected and frozen on dry ice prior to storage at −80° C.
The frozen tissue pieces were weighed and kept on dry ice prior to homogenization. […]
(§2) Total and non-specific binding was determined at a single concentration of radioligand (in parentheses): [^3H]-citalopram (3 nM) and [^3H]-nisoxetine (5 nM) at SERT and NET, respectively. […] Filter plates were washed six times with wash buffer (ice-cold 50 mM Tris-HCl, 0.9% NaCl, at 4° C.) to remove unbound radioactivity. Plates were dried, 35-45 μL Microscint-20 liquid scintillation fluid (Packard BioScience Co., Meriden, Conn.) was added to each well, and plates were counted in a Packard Topcount liquid scintillation counter (Packard BioScience Co., Meriden, Conn.).
Specific binding was calculated using total (in the absence of test compound) and non-specific (determined as described above) binding from the same plate as follows: specific binding=value−non-specific binding. Data then were analyzed by linear regression analysis with the GraphPad Prism Software package (GraphPad Software, Inc., San Diego, Calif.). The initial rates of association of [^3H]-citalopram or [^3H]-nisoxetine, equal to the slope of the straight line, were determined by fitting data points, specific binding (cpm) versus time (min). The average of the initial rates of [^3H]-citalopram or [^3H]-nisoxetine association from vehicle-dosed animals was calculated. […]

Series [4] addresses SERT (Rattus norvegicus, UniProt P31652). Put plainly: 3H-5-HT uptake assay in rat brain synaptosomal preparations.
Text: (§3) Neurotransmitter uptake assays were used to measure inhibition of ^3H-serotonin (^3H-5-HT) and ^3H-norepinephrine (^3H-NE) uptake into cells expressing the respective human recombinant transporter (hSERT or hNET) and into rat brain synaptosomal preparations in order to determine the pIC50 values of test compounds at the human and rat monoamine transporters, respectively.
Rats were euthanized by decapitation. Rat freshly dissected cortical tissue pieces were suspended in ice-cold Sucrose Buffer at a ratio of 100 mg wet weight of tissue per 1 mL of buffer. The tissues were homogenized using a pre-chilled glass dounce homogenizer for 20 strokes. The homogenate was centrifuged at 1,000×g (10 min at 4° C.). […] Synaptosomes were resuspended in Sucrose Buffer and the protein concentration was determined by the method of Bradford (Bradford (1976) Analytical Biochemistry 72:24854) and used immediately following preparation. […]
Following a 10 minute incubation for cells (6 minute incubation for rat synaptosomes) at 37° C. with radioligand, the reactions were terminated by rapid filtration over a 96-well UniFilter GF/B plate, pretreated with 1% BSA, and washed 6 times with 650 μl wash buffer (ice cold PBS). Plates were dried, 35-45 μl of MicroScint™-20 (Perkin Elmer) added and incorporated radioactivity quantitated via liquid scintillation counting. […]
Series [5] deals with hNET (Homo sapiens, UniProt P23975). Put plainly: 3H-NE neurotransmitter uptake assay in HEK-293 cells expressing hNET.
Experimental: as §3
HEK-293 derived cell lines stably-transfected with hSERT or, hNET, respectively, were grown in Dulbecco's modified Eagles Medium (DMEM) supplemented with 10% dialyzed FBS (for hSERT) or FBS (for hNET), 100 μg/ml penicillin, 100 μg/ml streptomycin, 2 mM L-glutamine and 250 μg/ml of the aminoglycoside antibiotic G418 in a 5% CO2 humidified incubator at 37° C. When cultures reached 50-80% confluence, the cells were washed thoroughly in PBS (without Ca^2+ and Mg^2+) and lifted with 5 mM EDTA in PBS. Cells were harvested by centrifugation at 1100 rpm for 5 minutes, the supernatant was discarded, and the cell pellet resuspended, by gentle trituration, in room temperature Krebs-Ringer bicarbonate buffer containing HEPES (10 mM), CaCl2 (2.2 mM), ascorbic acid (200 μM) and pargyline (200 μM), pH 7.4. The final concentration of cells in the cell suspension was 7.5×10^4 cells/ml for hSERT and 12.5×10^4 cells/ml for hNET. […]
(§4) Following a 10 minute incubation for cells (6 minute incubation for rat synaptosomes) at 37° C. with radioligand, the reactions were terminated by rapid filtration over a 96-well UniFilter GF/B plate, pretreated with 1% BSA, and washed 6 times with 650 μl wash buffer (ice cold PBS). Plates were dried, 35-45 μl of MicroScint™-20 (Perkin Elmer) added and incorporated radioactivity quantitated via liquid scintillation counting. Inhibition curves were analyzed using the GraphPad Prism Software package (GraphPad Software, Inc., San Diego, Calif.).
The target in series [6] is hSERT (Homo sapiens, UniProt P31645). Put plainly: 3H-5-HT neurotransmitter uptake assay in HEK-293 cells expressing hSERT.
Experimental: as §3
HEK-293 derived cell lines stably-transfected with hSERT or, hNET, respectively, were grown in Dulbecco's modified Eagles Medium (DMEM) supplemented with 10% dialyzed FBS (for hSERT) or FBS (for hNET), 100 μg/ml penicillin, 100 μg/ml streptomycin, 2 mM L-glutamine and 250 μg/ml of the aminoglycoside antibiotic G418 in a 5% CO2 humidified incubator at 37° C. […]
as §4
Series [7] deals with T2, rat NET (Rattus norvegicus, UniProt Q63380).
T2 construct: from tissue; host or cells: rat cortex or lumbar spinal cord homogenate from dosed animals
The series is described as follows: Ex vivo NET transporter occupancy ([3H]-nisoxetine association). Format: in vivo. Conditions: lumbar spinal cord, 1.25 h post dose, ± Standard Error.
Text: as §1
The spinal cord was harvested by hydraulic extrusion with PBS. An 18 gauge needle was inserted into the spinal column near the iliac crest and the buffer injected into the spinal column with the resultant extrusion of the spinal cord, intact. […]
as §2
Specific binding was calculated using total (in the absence of test compound) and non-specific (determined as described above) binding from the same plate as follows: specific binding=value−non-specific binding. […]

The target of series [8] is NET (Rattus norvegicus, UniProt Q63380). Put plainly: 3H-NE uptake assay in rat brain synaptosomal preparations. The note with it: Rat brain synaptosomes, 3H-NE uptake.
Text: as §3
(§5) Rats were euthanized by decapitation. Rat freshly dissected cortical tissue pieces were suspended in ice-cold Sucrose Buffer at a ratio of 100 mg wet weight of tissue per 1 mL of buffer. The tissues were homogenized using a pre-chilled glass dounce homogenizer for 20 strokes. The homogenate was centrifuged at 1,000×g (10 min at 4° C.). The pellet was discarded and the resulting supernatant was centrifuged at 10,000×g (20 min at 4° C.) to obtain the crude synaptosomal pellet. Synaptosomes were resuspended in Sucrose Buffer and the protein concentration was determined by the method of Bradford (Bradford (1976) Analytical Biochemistry 72:24854) and used immediately following preparation.
(§6) Neurotransmitter uptake assays were performed in a 96-well assay plate in a total volume of 400 μg containing 1.5×10^4 and 2.5×10^4 cells, for SERT and NET, respectively or 10 μg cortical synaptosomal protein in assay buffer (Krebs-Ringer bicarbonate buffer containing HEPES (10 mM), CaCl2 (2.2 mM), ascorbic acid (200 μM) and pargyline (200 μM), pH 7.4). […]
as §4
In series [9] the test system is NET. Described as above.
Text: as §3, §5, §6, §4

T1 sequence (P31652 whole entry): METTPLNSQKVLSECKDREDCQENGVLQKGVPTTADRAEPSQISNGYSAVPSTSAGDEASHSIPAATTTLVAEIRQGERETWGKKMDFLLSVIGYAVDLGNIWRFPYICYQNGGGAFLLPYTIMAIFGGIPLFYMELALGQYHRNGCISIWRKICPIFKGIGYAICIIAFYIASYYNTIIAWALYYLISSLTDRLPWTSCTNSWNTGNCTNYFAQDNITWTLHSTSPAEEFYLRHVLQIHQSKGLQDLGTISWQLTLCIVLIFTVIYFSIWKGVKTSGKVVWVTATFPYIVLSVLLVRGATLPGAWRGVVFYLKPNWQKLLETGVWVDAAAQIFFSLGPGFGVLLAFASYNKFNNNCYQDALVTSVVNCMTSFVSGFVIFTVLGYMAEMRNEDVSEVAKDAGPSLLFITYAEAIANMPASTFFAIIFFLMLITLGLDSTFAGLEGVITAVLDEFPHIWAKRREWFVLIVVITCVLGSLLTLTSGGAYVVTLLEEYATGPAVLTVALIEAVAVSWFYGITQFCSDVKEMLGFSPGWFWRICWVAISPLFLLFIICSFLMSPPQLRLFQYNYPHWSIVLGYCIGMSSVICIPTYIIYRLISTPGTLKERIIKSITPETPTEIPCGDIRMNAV
Sequence of hNET (P23975 whole entry): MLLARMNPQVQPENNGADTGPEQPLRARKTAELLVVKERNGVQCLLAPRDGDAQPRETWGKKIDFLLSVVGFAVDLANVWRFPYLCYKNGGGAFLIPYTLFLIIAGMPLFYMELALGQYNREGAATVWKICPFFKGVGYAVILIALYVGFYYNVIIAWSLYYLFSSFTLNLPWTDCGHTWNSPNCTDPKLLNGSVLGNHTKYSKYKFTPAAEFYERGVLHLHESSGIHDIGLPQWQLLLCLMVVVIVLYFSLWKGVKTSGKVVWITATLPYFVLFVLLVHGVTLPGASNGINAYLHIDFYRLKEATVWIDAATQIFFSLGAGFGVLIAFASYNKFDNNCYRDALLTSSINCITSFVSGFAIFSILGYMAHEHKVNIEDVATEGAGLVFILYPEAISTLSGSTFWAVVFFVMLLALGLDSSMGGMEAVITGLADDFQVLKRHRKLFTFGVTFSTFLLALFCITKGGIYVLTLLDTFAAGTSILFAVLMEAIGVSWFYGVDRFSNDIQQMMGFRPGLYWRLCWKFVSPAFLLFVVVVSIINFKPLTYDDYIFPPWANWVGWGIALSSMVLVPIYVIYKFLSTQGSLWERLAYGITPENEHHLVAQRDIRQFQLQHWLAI
T2 sequence (Q63380 1-617): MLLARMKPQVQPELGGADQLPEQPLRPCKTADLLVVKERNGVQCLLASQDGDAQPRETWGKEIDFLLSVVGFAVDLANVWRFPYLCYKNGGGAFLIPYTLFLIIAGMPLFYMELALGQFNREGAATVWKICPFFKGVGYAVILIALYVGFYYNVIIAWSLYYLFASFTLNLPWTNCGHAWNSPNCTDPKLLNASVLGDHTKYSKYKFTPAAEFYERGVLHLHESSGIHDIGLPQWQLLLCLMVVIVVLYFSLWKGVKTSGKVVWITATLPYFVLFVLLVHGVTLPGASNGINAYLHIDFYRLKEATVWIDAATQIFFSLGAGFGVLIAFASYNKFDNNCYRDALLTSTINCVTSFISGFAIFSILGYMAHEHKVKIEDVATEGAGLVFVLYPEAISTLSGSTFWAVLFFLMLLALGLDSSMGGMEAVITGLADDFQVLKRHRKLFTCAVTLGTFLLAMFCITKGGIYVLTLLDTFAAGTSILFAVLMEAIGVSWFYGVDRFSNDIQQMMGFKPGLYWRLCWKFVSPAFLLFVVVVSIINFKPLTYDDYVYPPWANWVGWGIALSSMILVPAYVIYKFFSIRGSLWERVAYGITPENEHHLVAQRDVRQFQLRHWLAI
Sequence of hSERT (P31645 whole entry): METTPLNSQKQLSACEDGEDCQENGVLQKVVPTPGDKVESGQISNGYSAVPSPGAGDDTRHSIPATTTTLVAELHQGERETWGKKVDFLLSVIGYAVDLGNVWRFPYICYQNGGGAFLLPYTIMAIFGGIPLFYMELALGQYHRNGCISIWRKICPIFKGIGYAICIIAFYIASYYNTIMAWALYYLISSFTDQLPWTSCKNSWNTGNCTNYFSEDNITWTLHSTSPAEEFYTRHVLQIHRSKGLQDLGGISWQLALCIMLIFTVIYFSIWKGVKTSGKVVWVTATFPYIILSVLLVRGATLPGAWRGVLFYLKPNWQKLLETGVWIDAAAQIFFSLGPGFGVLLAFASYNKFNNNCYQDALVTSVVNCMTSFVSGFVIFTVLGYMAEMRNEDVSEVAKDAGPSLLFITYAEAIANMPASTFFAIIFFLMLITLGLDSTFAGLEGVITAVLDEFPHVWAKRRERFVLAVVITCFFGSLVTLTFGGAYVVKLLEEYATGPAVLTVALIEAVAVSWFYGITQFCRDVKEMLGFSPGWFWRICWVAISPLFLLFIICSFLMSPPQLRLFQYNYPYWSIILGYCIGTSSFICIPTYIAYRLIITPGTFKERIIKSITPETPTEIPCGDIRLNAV
Sequence of NET (Rattus norvegicus, UniProt Q63380) (Q63380 1-617): as the sequence (Q63380 1-617) above
Sequence of SERT (P31652 whole entry): as the sequence (P31652 whole entry) above

For the compound `CNCC[C@@H](Oc1ccccc1C)c1ccccc1` [Atomoxetine, atomoxetine, reference compound], the “Plasma concentrations of SNRI alone versus in combination with morphine” value in [1] is listed as “equivalent”. Also, in [2] (rat formalin model), the “SNRI Dose Response ED50 (Confidence Interval)” value was 24.4 (14.5-41.1) (n = 6-12) mg/kg. In [3] (cortex), this compound gave a receptor occupancy at 3 mg/kg of 35 ± 9% and a receptor occupancy at 10 mg/kg of 64 ± 5%.
Usually IC50 stands for the midpoint of a concentration-inhibition curve. Read a high IC50 as a need for much substance. By inhibition is commonly meant the percentage by which the read-out fell short of the control. On to `Fc1cc(F)c(OCc2ccccc2C2CCNCC2)c(F)c1` [Compound 1, 4-[2-(2,4,6-trifluoro-phenoxymethyl)-phenyl]-piperidine], for which the “Plasma concentrations of SNRI alone versus in combination with morphine” value in series [1] is recorded as “equivalent”. In addition, the half-maximal inhibitory concentration (IC50) in series [4] is 12.6 nM; in series [5], 2.51 nM; in series [6] it was 10 nM. Moreover, the NET selectivity is reported as 4 in [5] and 10 in [9] (Rat brain synaptosomes, 10**(NET pIC50 − SERT pIC50)). Also, the “selectivity for NET (ratio of SERT to NET IC50 values)” value in [5] (human recombinant cell-based assay) is recorded as “about 4 fold”; in series [9] (rat brain synaptosomal preparations), “about 10 fold”. The values for the receptor occupancy at 3 mg/kg in [7] (3 mg/kg IP) and in [3] (lumbar spinal cord) were 77 ± 15% and 23 ± 14%, respectively. Also, the receptor occupancy at 10 mg/kg stood at 81 ± 6% in series [7] (10 mg/kg IP) and 46 ± 20% in series [3] (lumbar spinal cord). In addition, the inhibition at 10 mg/kg in series [2] (Rattus norvegicus, single administration of 10 mg/kg compound 1 IP, mean±SEM, read-out: inhibition of flinching behavior) is 20 ± 7%. Besides, in [2] (first 10 minutes post formalin injection (acute pain processing)), the “pain behavior during phase 1” value is “Decreases in pain behavior were also observed”. Further, the “SNRI Dose Response ED50 (Confidence Interval)” value in series [2] (rat formalin model) is given as 20.0 (14.0-28.4) mg/kg. Moreover, the “interaction with morphine (shift of morphine dose response curve)” value in series [2] (rat formalin model, 3 mg/kg IP compound 1 plus morphine SC, 3 mg/kg) is recorded as “failed to significantly shift the morphine dose response curve”. Also, the “interaction with oxycodone (ED50 shift, isobolographic analysis)” value in series [2] (rat formalin model, 10 mg/kg IP compound 1 plus oxycodone SC) is on record as “synergistic interaction”. The “interaction with morphine (ED50 shift, isobolographic analysis)” value in series [2] (rat formalin model, compound 1 or atomoxetine 10 mg/kg IP, duloxetine 3, 5 or 10 mg/kg IP, morphine SC) is on record as “synergistic interaction”. Also, the “NET pIC50” value in series [8] is given as 8.9.
With `CNCC[C@H](Oc1cccc2ccccc12)c1cccs1` [Duloxetine, duloxetine, reference compound], in series [2] (duloxetine 5 mg/kg IP co-administered with ondansetron 3 mg/kg IP, with morphine 1 mg/kg SC), the morphine sparing effect result is recorded as “a morphine sparing effect was observed”. Besides, the “inhibition of flinching behavior (in words)” value in series [2] (single administration of 10 mg/kg duloxetine) is listed as “significant inhibition of flinching behavior”.
On to `CN1CC[C@]23c4c5ccc(O)c4O[C@H]2[C@@H](O)C=C[C@H]3[C@H]1C5` [Morphine, morphine, reference compound], for which the inhibition at 1 mg/kg in series [2] (Rattus norvegicus, sc, read-out: inhibition of flinching behavior) amounted to 13 ± 11%.
With `COc1ccc2c3c1O[C@H]1C(=O)CC[C@@]4(O)[C@@H](C2)N(C)CC[C@]314` [Oxycodone, oxycodone], the “Plasma concentrations alone versus combination of compound 1 and oxycodone” value in [1] (compound 1 10 mg/kg IP, oxycodone 3 mg/kg SC) is listed as “equivalent”.
